US4868190A, “N-pyridinyl-9H-carbazol-9-amines” (Hoechst-Roussel Pharmaceuticals, Inc., priority 1988, dated 1989)
Read-outs that look alike come from different tables or passages of the source.

Experiments:
[1] = tested on: scopolamine induced memory deficit; assay: Dark Avoidance Assay (scopolamine-induced memory deficit); type: in vivo; conditions: mice, 24 hours
Description: In this assay mice are tested for their ability to remember an unpleasant stimulus for a period of 24 hours. A mouse is placed in a chamber that contains a dark compartment; a strong incandescent light drives it to the dark compartment, where an electric shock is administered through metal plates on the floor. The animal is removed from the testing apparatus and tested again, 24 hours later, for the ability to remember the electric shock. If scopolamine, an anticholinergic that is known to cause memory impairment, is administered before an animal's initial exposure to the test chamber, the animal re-enters the dark compartment shortly after being placed in the test chamber 24 hours later.

[2] = tested on: tetrabenazine-induced ptosis; assay: Prevention of Tetrabenazine-Induced Ptosis in Mice; type: in vivo, mice (male); conditions: Mus musculus, po, read-out: Antidepressant activity ED50
Excerpt: The test method and results are described below.
Tetrabenazine (TBZ) induces behavioral depression with concomitant ptosis in mice similar to reserpine. Antidepressant compounds, both monoamineoxidase inhibitors and tricyclics, are known to prevent or antagonize these effects and the degree of antagonism correlates with clinical efficacy. The prevention of […] ptosis in mice is used as a preliminary screen for possible antidepressant activity. The method used in this invention is as follows:
Male mice weighing 20 to 30 grams are used in test groups of five subjects. All compounds are dissolved or suspended with a suitable surfactant in distilled water and administered in volumes of 10 ml/kg of body weight. TBZ solution is made from the methanesulfonate salt and the concentration is adjusted to enable administration of 60 mg/kg of base by intraperitoneal (i.p.) injection.
The pretreatment time is measured from the time of dosing to observation. Therefore, when a 30-minute pretreat is utilized, drug and TBZ are given simultaneously. A control group received solvent and TBZ at intervals identical to drug group. For a primary screen, the drug is administered i.p. and a group size of five is utilized. Eight animals/group are used for a dose range.
The total score for each group of five in a primary screen will, therefore, be from 0 to 20 and these scores are used as indications of drug activity.
The vehicle control group score is used as a determinant of the validity of each test. […] The calculation of percent inhibition of ptosis is: [formula]

[3] = tested on: 2-phenyl-1,4-benzoquinone-induced writhing; assay: 2-phenyl-1,4-benzoquinone-induced writhing (PQW) test in mice; type: in vivo; conditions: Mus musculus, sc, read-out: PQW ED50
Excerpt: Compounds I of the present invention are useful as analgesic agents due to their ability to alleviate pain in mammals. […] Exptl. Biol. Med., 95, 729 (1957)] and in modified Haffner's analgesia.

[4] = tested on: sensitivity of mice to pressure stress (artery clip on tail); assay: Modified Haffner's analgesia (artery clip on tail); type: in vivo, mice (male, Charles River, CD-1); conditions: Mus musculus, sc, read-out: Modified Haffner's Analgesia ED50
Excerpt: The latter assay is used to evaluate analgesic activity by measuring drug-induced changes in the sensitivty of mice to pressure stress by placing an artery clip (21/2 inches long) on their tail. The procedure used is a modification of the test developed by Haffner, Dtsch. Med. Wschr. 55, 731 (1929), and it is described below:
Male mice (Charles River, CD-1) from 18-30 grams are used for the test. An artery clip is applied to the root of the tail of a mouse (approximately 1/2 inch from the body) to induce pain. The animals quickly responds to this noxious stimuli by biting the clip or the location of the clip. This reaction time, the interval between stimulus onset and response, is recorded on 1/10 second increments by a stop watch.
For a time response, the screening dose (25 mg/kg) is administered subcutaneously (10 ml/kg) to the animal receiving food and water ad libitum before testing. Animals receiving the compound orally are fasted 18-24 hours before drug administration. Drug to be tested is prepared with distilled water and if insoluble, one drop of a surfactant is added.
Twenty-eight animals (seven/group) are administered the drug 15, 30, 45 and 60 minutes prior to testing.
The cut-off time (CO) is determined by taking the (x) average+3 standard (SD) deviation of the combined response latencies of the control mice in all time periods.
Any reaction time, in subsequent drug tests, which is greater than the CO (for the same time period) therefore exceeds 99% of normal Gaussian distribution and is called "positive response" indicative of analgesic activity. A time response indicates the period of greatest analgesic effect after dosing. The ED50 is determined at the peak time of drug activity. A minimum of three dose groups are used. ED50 's are calcualted using computer analysis.

[5] = tested on: supramaximal electroshock (extensor tonus); assay: Anticonvulsant activity, supramaximal electroshock (SES) assay; type: in vivo; conditions: ip; male mouse, at peak activity time
Description: Compounds I of the present invention are also useful as anticonvulsant agents due to their anticonvulsant activity in mammals. Anticonvulsant activity is measured in the male mouse using the supramaximal electroshock (SES) assay described in Arch. Int. Pharmacodyn. 92:97-107, 1952. In this procedure groups of animals are used. Drugs are prepared using distilled water and, if insoluble, a surfactant is added. Control animals receive vehicle. Drugs are routinely administered intraperitoneally (i.p.). The dosage volume is 10 ml/kg. A primary screen is given a 30 minute pretreat. The animal's eyes are placed across the output terminals of an A.C. shocker that delivers 206 volts rms for 300 msec. Electrode paste coats the animals eyes at the point of contact with the terminals. […] Protection is expressed as normalized percent inhibition relative to vehicle control.
A time response is carried out using six animals/group. Animals are tested at 30, 60 and 120 minutes postdrug. Additional time periods are tested if indicated by previous tests. When the peak activity time has been determined, a dose response is initiated using 10 animals/group at that time period. The ED50 and 95% confidence interval are calculated by computer probit analysis.

[6] = mice, s.c., at peak time of drug activity

SMILES | ED50 ([2]; mice, p.o., TBZ 60 mg/kg i.p.) [mg/kg] | ED50 ([3]; mice, s.c.) [mg/kg] | ED50 [4, 6] [mg/kg] | further results
O=C1CC2(CCCC2)CC(=O)N1CCCCN(c1ccncc1)n1c2ccccc2c2ccccc21 [8-[4-(9H-carbazol-9-yl-4-pyridinylamino)butyl]-8-azaspiro[4.5]decane-7,9-dione] |  |  |  | % of animals with scopolamine induced memory deficit reversal ([1]; dose 5.0 mg/kg body weight): 60%
CCCCN(c1ccncc1)n1c2ccccc2c2ccccc21.Cl [N-(Butyl)-N-(4-pyridinyl)-9H-carbazol-9-amine hydrochloride] | 5.2 |  |  | % of animals with scopolamine induced memory deficit reversal ([1]; dose 0.63 mg/kg body weight): 33%
Cl.Fc1cnccc1Nn1c2ccccc2c2ccccc21 [N-(3-Fluoro-4-pyridinyl)-9H-carbazol-9-amine hydrochloride] |  | 1.3 | 0.7 | 
CNCCCN1c2ccccc2CCc2ccccc21 [Desipramine, reference compound] |  |  |  | ED50 [2]: 2.3 mg/kg
CC(C)=CCN1CCC2(C)c3cc(O)ccc3CC1C2C (stereo not shown) [Pentazocin, reference compound] |  |  |  | ED50 [3]: 1.3 mg/kg; ED50 [4]: 3.9 mg/kg
CCCN(c1ccncc1F)n1c2ccccc2c2ccccc21 [N-(3-Fluoro-4-pyridinyl)-N-propyl-9H-carbazol-9-amine] |  |  |  | % of animals with scopolamine induced memory deficit reversal ([1]; dose 1.25 mg/kg body weight): 27%
Brc1ccc2c(c1)c1ccccc1n2Nc1ccncc1.O=C(O)/C=C\C(=O)O [3-Bromo-N-(4-pyridinyl)-9H-carbazol-9-amine maleate] | 7.6 | 1.2 | 1.1 | % of animals with scopolamine induced memory deficit reversal ([1]; dose 0.31 mg/kg body weight): 33%
CNC1=Nc2ccc(Cl)cc2C(c2ccccc2)=[N+]([O-])C1 [Chlordiazepoxide, reference compound] |  |  |  | ED50 [5]: 8 mg/kg
CN(c1ccncc1)n1c2ccccc2c2ccccc21.O=C(O)/C=C\C(=O)O [N-Methyl-N-(4-pyridinyl)-9H-carbazol-9-amine maleate] | 1.5 | 0.1 | 0.19 | 
CCN(c1ccncc1)n1c2ccccc2c2ccccc21.O=C(O)/C=C\C(=O)O [N-Ethyl-N-(4-pyridinyl)-9H-carbazol-9-amine maleate] | 2.2 | 1.1 | 4.3 | ED50 [5]: 6.4 mg/kg
O=C(O)/C=C\C(=O)O.c1ccc2c(c1)c1ccccc1n2Nc1ccncc1 [N-(4-Pyridinyl)-9H-carbazol-9-amine maleate] | 2.3 | 0.5 | 0.4 | ED50 [5]: 23.4 mg/kg
CCCN(c1ccncc1)n1c2ccccc2c2ccccc21.O=C(O)/C=C\C(=O)O [N-(Propyl)-N-(4-pyridinyl)-9H-carbazol-9-amine maleate] | 1.5 | 4.3 | 9.8 | ED50 [5]: 16.9 mg/kg; % of animals with scopolamine induced memory deficit reversal ([1]; dose 2.5 mg/kg body weight): 33%
CNC(=O)Oc1ccc2c(c1)[C@]1(C)CCN(C)[C@@H]1N2C [Physostigmine, reference compound] |  |  |  | % of animals with scopolamine induced memory deficit reversal ([1]; dose 0.31 mg/kg body weight): 20%
C=CCN(c1ccncc1)n1c2ccccc2c2ccccc21.O=C(O)/C=C\C(=O)O [N-(2-Propenyl)-N-(4-pyridinyl)-9H-carbazol-9-amine maleate] | 3.7 | 1 | 1.2 | 
